Data published in patent US11591323B2, “Muscarinic agonists as non-steroidal and non-opioid analgesics and methods of use thereof” (Barry University, priority 2019, dated 2023).
Values joined by “and” are separate entries in the source; they are usually repeats but may differ in a detail not shown here. Equal entries are not always repeated. Where two headings read alike, the source gives them in different places.

Experiments:
Parameters in all cases: host or cells: CHO cells, stably transfected
M5 muscarinic receptor = molecular target: T1, M5 muscarinic receptor (Homo sapiens, UniProt P08912); experiment: accumulation of IPX, M5 CHO cells (M5Gq); assay type: cell-based; conditions: for EC50: read-out: pEC50 (converted)
T1 sequence (P08912 1-532): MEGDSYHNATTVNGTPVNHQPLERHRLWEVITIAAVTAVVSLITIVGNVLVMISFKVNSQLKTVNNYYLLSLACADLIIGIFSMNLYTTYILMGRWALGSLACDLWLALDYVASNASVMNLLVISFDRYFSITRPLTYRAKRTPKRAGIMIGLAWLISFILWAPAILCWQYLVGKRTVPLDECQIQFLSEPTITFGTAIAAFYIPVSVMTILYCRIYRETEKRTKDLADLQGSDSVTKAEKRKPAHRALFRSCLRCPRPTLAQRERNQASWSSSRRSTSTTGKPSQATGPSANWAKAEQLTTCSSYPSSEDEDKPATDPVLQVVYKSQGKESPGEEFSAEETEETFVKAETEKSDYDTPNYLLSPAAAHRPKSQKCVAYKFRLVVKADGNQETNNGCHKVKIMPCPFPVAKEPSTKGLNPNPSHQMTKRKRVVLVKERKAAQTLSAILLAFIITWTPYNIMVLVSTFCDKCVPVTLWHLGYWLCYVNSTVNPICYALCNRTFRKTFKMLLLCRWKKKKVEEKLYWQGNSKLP

M3 muscarinic receptor = M3 muscarinic receptor (Homo sapiens, UniProt P20309); experiment: [3H]NMS competition binding, M3 CHO membranes; conditions: competition with 1 nM [3H]NMS; read-out: Inhibition constants (Ki) as negative logarithms, M3 (converted)
Sequence of M3 muscarinic receptor (P20309 whole entry): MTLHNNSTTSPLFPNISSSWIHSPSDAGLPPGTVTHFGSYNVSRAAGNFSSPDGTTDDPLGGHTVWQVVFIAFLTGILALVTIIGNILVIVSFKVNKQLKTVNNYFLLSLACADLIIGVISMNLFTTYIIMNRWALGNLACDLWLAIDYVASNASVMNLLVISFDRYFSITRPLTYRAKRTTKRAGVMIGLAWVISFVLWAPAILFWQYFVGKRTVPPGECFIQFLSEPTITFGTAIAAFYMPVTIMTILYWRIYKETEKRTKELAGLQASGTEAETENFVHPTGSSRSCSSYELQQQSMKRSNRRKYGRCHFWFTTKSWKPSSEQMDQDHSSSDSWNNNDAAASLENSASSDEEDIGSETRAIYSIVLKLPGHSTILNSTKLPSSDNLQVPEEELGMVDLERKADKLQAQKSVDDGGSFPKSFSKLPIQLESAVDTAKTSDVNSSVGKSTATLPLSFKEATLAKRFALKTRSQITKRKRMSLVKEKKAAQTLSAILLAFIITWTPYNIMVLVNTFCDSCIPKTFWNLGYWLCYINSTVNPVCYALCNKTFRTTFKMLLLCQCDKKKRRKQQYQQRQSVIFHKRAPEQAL

M1 muscarinic receptor [1] = molecular target: T2, M1 muscarinic receptor (Homo sapiens, UniProt P11229); experiment: [3H]NMS competition binding, M1 CHO membranes; conditions: competition with 1 nM [3H]NMS; read-out: Inhibition constants (Ki) as negative logarithms, M1 (converted)
T2 sequence (P11229 1-460): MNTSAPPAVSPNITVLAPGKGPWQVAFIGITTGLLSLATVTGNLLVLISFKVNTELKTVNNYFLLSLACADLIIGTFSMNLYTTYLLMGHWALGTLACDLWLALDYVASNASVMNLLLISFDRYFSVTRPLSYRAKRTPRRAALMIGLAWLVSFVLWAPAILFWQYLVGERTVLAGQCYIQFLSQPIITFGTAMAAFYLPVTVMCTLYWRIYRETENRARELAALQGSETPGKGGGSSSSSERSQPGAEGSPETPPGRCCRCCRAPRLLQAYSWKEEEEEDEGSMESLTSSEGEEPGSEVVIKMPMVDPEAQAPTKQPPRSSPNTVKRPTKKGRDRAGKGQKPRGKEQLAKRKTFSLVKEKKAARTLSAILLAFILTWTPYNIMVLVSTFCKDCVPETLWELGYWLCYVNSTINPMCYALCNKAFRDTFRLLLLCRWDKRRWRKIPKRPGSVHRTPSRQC

M2 muscarinic receptor = molecular target: T3, M2 muscarinic receptor (Homo sapiens, UniProt P08172); experiment: [3H]NMS competition binding, M2 CHO membranes; conditions: competition with 1 nM [3H]NMS; read-out: Inhibition constants (Ki) as negative logarithms, M2 (converted)
T3 sequence (P08172 1-466): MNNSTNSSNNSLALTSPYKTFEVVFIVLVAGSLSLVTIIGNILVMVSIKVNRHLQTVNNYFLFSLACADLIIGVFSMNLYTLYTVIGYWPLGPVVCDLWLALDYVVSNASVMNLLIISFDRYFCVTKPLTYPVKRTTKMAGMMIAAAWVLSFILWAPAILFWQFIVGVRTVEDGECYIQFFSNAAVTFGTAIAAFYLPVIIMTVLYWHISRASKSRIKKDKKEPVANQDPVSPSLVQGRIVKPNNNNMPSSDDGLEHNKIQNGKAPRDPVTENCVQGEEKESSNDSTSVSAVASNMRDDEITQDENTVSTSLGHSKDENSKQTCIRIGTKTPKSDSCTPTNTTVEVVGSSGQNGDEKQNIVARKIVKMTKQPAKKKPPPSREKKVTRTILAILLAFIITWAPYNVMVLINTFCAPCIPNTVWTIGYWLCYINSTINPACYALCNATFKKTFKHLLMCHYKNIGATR

M1 muscarinic receptor [2] = molecular target: T2, M1 muscarinic receptor; experiment: accumulation of inositol phosphates IPX, M1 CHO cells (M1Gq); assay type: cell-based; conditions: for Kd: operational model, read-out: pKA (converted); for EC50: read-out: pEC50 (converted)
M4 muscarinic receptor [3] = molecular target: T4, M4 muscarinic receptor (Homo sapiens, UniProt P08173); experiment: inhibition of forskolin-stimulated cAMP, M4 CHO cells (M4Gi); assay type: cell-based; conditions: for Emax: CHO; for Kd: read-out: pKA (converted); for EC50: read-out: pEC50 (converted)
T4 sequence (P08173 1-479): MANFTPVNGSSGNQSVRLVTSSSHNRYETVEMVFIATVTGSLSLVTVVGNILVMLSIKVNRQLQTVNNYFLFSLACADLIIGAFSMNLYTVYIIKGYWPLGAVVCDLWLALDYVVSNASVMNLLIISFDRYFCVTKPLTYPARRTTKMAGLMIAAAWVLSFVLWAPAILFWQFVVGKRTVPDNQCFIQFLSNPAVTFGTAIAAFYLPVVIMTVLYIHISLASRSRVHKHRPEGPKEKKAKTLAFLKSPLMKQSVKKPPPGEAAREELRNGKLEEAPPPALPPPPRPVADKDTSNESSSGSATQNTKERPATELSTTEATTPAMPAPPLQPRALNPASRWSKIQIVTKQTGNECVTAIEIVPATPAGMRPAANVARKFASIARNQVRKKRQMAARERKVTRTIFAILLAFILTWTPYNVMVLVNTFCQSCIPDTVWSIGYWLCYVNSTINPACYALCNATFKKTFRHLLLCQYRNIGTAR

M4 muscarinic receptor [4] = molecular target: T4, M4 muscarinic receptor; experiment: [3H]NMS competition binding, M4 CHO membranes; conditions: competition with 1 nM [3H]NMS; read-out: Inhibition constants (Ki) as negative logarithms, M4 (converted)
[5] = M5 (↑IPX), preferential response, Table 7
[6] = M5 (↑IPX), preferential response, relative to carbachol, Tables 2, 3, 7
[7] = M1 (↑IPX), preferential response, Table 7
[8] = M1 (↑IPX), preferential response, Table 7, operational efficacy
[9] = M4 (↓cAMP), preferential response, Table 7, operational efficacy
[10] = M4 (↓cAMP), preferential response, Table 7, operational model
[11] = M4 (↓cAMP), preferential response, Table 7
[12] = M4 (↓cAMP), preferential response, relative to carbachol, Tables 2, 3, 7
[13] = M4 (↓cAMP), preferential response, to carbachol, Tables 2, 3, 7

Row | Compound | E′MAX (M5 muscarinic receptor; [5]) | EC50 (M5 muscarinic receptor; [5]) | RAi (M5 muscarinic receptor; [6]) | Ki (M3 muscarinic receptor) | Ki (M1 muscarinic receptor [1]) | Ki (M2 muscarinic receptor) | E′MAX (M1 muscarinic receptor [2]; [7]) | τ (M1 muscarinic receptor [2]; [8]) | Kd (M1 muscarinic receptor [2]; [7]) | EC50 (M1 muscarinic receptor [2]; [7]) | τ (M4 muscarinic receptor [3]; [9]) | Kd (M4 muscarinic receptor [3]; [10]) | EC50 (M4 muscarinic receptor [3]; [11]) | RAi (M4 muscarinic receptor [3]; [12]) | Δlog(τ/KA) (M4 muscarinic receptor [3]; [13]) | Ki (M4 muscarinic receptor [4]) | further results
1 | C[N+]1(Cc2cccs2)CC=CCC1.[I-] (centres unmarked) [Compound 7A, 1-methyl-1-[(thiophen-2-yl)methyl]-1,2,3,6-tetrahydropyridin-1-ium iodide] | 1.28 ± 0.05 fold over basal | 7.94 µM | 0.0007 ± 0.0002 and 0.0007 ± 0.0001 | 7.94 µM | 11.2 µM | 7.94 µM | 4.6 ± 0.4 fold over basal | 0.12 ± 0.01 | 3.16 µM | 2.63 µM | 0.78 ± 0.08 | 3.16 µM | 1.78 µM | 0.0209 ± 0.0011 | 1.58 ± 0.22 | 7.94 µM | E′MAX (M5 muscarinic receptor; M5Gq (↑IPX), Table 8): 1.26 ± 0.05 fold over basal; RAi (M5 muscarinic receptor; M5Gq (↑IPX), Table 8, relative to carbachol): 0.0006 ± 0.0002; EC50 (M5 muscarinic receptor; M5Gq (↑IPX), Table 8): 7.94 µM; RAi (M1 muscarinic receptor [2]; M1 (↑IPX), preferential response, relative to carbachol, Tables 2, 3, 7): 0.0111 ± 0.0002; Δlog(τ/KA) (M1 muscarinic receptor [2]; M1 (↑IPX), preferential response, to carbachol, Tables 2, 3, 7): 1.96 ± 0.16; E′MAX (M1 muscarinic receptor [2]; M1Gq (↑IPX), Table 8): 4.6 ± 0.4 fold increase; pEC50 (M1 muscarinic receptor [2]; M1Gq (↑IPX), Table 8): 5.58 ± 0.03; pKA (M1 muscarinic receptor [2]; M1Gq (↑IPX), Table 8): 5.5 ± 0.1; τ (M1 muscarinic receptor [2]; M1Gq (↑IPX), Table 8): 0.12 ± 0.01; RAi (M1 muscarinic receptor [2]; M1Gq (↑IPX), Table 8, relative to carbachol): 0.012 ± 0.006; Δlog(τ/KA) (M1 muscarinic receptor [2]; M1Gq (↑IPX), Table 8, to carbachol): 1.93 ± 0.25; Emax (M4 muscarinic receptor [3]; M4 (↓cAMP), preferential response, Table 7, read-out: E′MAX): 39 ± 2%; E′MAX (M4 muscarinic receptor [3]; M4Gi (↓cAMP), Table 8): 39 ± 2 % inhibition; τ (M4 muscarinic receptor [3]; M4Gi (↓cAMP), Table 8): 0.78 ± 0.08; RAi (M4 muscarinic receptor [3]; M4Gi (↓cAMP), Table 8, relative to carbachol): 0.0209 ± 0.0011; Δlog(τ/KA) (M4 muscarinic receptor [3]; M4Gi (↓cAMP), Table 8, to carbachol): 1.58 ± 0.22; EC50 (M4 muscarinic receptor [3]; M4Gi (↓cAMP), Table 8): 1.78 µM; Kd (M4 muscarinic receptor [3]; M4Gi (↓cAMP), Table 8): 3.16 µM
2 | C[N+]1(Cc2ccc(Br)s2)CC=CCC1.[I-] (centres unmarked) [Compound 7C, 1-[(5-bromothiophen-2-yl)methyl]-1-methyl-1,2,3,6-tetrahydropyridin-1-ium iodide] | 1.19 ± 0.04 fold over basal | 3.16 µM | 0.0013 ± 0.0005 | 2.04 µM | 1.51 µM | 0.933 µM | 1.8 ± 0.2 fold over basal | 0.02 ± 0.01 | 2.51 µM | 2.51 µM | 0.14 ± 0.01 | 2.51 µM | 2.4 µM | 0.0030 ± 0.0003 | 2.26 ± 0.16 | 1.45 µM | RAi (M1 muscarinic receptor [2]): 0.0024 ± 0.0004; Δlog(τ/KA) (M1 muscarinic receptor [2]): 2.62 ± 0.18; Emax (M4 muscarinic receptor [3]): 11 ± 1%
